Measurements: patent US8927534B2, “Compounds for the inhibition of integrins and use thereof” (Shire Orphan Therapies GmbH, priority 2006, dated 2015)

Legend:
HUVEC = test: Migration assay with HUVEC; format: cell-based; conditions: Homo sapiens, transwell coated with chymotryptic fibronectin fragment, 10 ng/ml bFGF chemoattractant, 3 h
Description: Migration assays are carried out using modified Boyden chambers consisting of Fluoroblock Transwell membrane filter (8 μm pores) in 24 well companion tissue plates (BD). Three wells per group are used.
The underfaces of the transwell membranes are coated with chymotryptic fibronectin fragment (10 μg/ml; Chemicon) and blocked with 2% BSA for 1 h at room temperature. After rinsing with PBS transwells are placed into companion plates containing 700 μl serumfree medium with indicated compound concentrations and chemoattractant (10 ng/ml bFGF; Promocell).
HUVEC are maintained in standard culture medium (Endothelial Cell Growth Medium; Promocell, containing supplement mix and 2% FCS) in a humified 5% CO2 incubator at 37° C. Cells are grown to 70-90% confluency and are made quiescent in culture medium containing 0.5% FCS, 0.1% BSA, no supplements for 16 h. Medium is removed and serum-free medium (0% FCS; 0.1% BSA, no supplements) is added for 1.5 h. Cells are detached with trypsin and cell suspension is adjusted to 1×10^5/ml. Indicated compound concentrations are added to cells. Cells are preincubated with compounds for 15 min, before seeding of 250 μl of the cell suspensions into the transwells. Cells are allowed to migrate for 3 h in 37° C. incubator with 5% CO2. Then, transwells are transferred to 24 well companion tissue plates containing Calcein AM (4 μM; Molecular Probes) in HBSS and incubated for another 2 h. Plates are read at excitation/emission […] in a fluorescence reader.
Results are expressed as percent of control (cells in serumfree medium without compound and chemoattractant.

Integrin alphaIIbbeta3 = Integrin alphaIIbbeta3 (Homo sapiens (Human), UniProt P05106+P08514); test: alphaIIbbeta3-Fibrinogen binding assay (competitive ELISA); conditions: inhibition of integrin binding to coated fibrinogen; read-out: IC50 alphabIIbbeta3
Description: (§1) The optimal concentrations of integrin and ligand were selected from ELISA binding studies with variable concentrations of both to obtain optimal signal noise ratio for further studies. IC50 studies were performed with fixed concentration of ligand and integrin and a serial dilution of inhibitor. The plates were measured with SpectraMax Plus reader (Molecular Devices). The resulting inhibition curves were analyzed using SoftMaxPro 4.0 software, the turning point describes the IC50 value.
(§2) Fibronectin was purchased from Sigma and fibrinogen from Calbiochem. (EMD Biosciences, Darmstadt, Germany). The integrin alpha5beta1 extracellular domain Fc-fusion was expressed and purified as described (Coe, 2001, J. Biol. Chem., 276, 35854). Integrin alphaIIbbeta3 was purchased form Kordia (Kordia Life Science, Leiden, Netherlands)
Fibrinogen was diluted with coating buffer (15 mM Na2CO3, 35 mM NaHCO3, pH 9.6) and coated with 100 μL/well to Nunc-Immuno maxisorp plates over night at 4° C. After discarding the coating solution plates were washed 3 times with buffer 1 (25 mM Tris, pH 7.6, 150 mM NaCl, 1 mM MnCl2, 1 mg/ml BSA) and blocked with 100 μL blocking buffer (3% BSA in PBS 0.1% Tween20) for 1 hour at room temperature. After washing the blocked plates (3 times) with buffer 1, integrin alphaIIbbeta3 (50 μL) and either inhibitor (serial dilution in buffer 3, 25 mM Tris, pH 7.6, 150 mM NaCl, 1 mM MnCl2, 1 mg/ml BSA 1 mM MgCl2, 1 mM CaCl2,) or buffer 3 (50 μL) were added to the wells and incubated for one hour at RT. Plates were then washed (3 times) with buffer 3 and incubated with 100 μL of anti-alphaIIbbeta3 antibody (anti CD41b, Pharmingen) in buffer 3 for 1 hour at RT. Plates were washed (3 times) with buffer 3 and incubated for 1 hour with 100 μL secondary antibody (anti-mouse-HRP conjugate, Sigma) in buffer 3. After additional washing steps (3 times) with buffer 350 μL of HRP substrate solution TMB (Seramun) were added to the wells. Color development was stopped after 3-5 minutes with 50 μL 1 M H2SO4. The developed color was measured at 450 nm and analyzed as described above.

alpha5beta1 = alpha5beta1 (Homo sapiens (Human), UniProt P05556+P08648); test: Cell adhesion assay with HEK293; format: cell-based; conditions: HEK293 cells, fibronectin-coated plates, 1 h at 37° C., 2 mM MgCl2
Description: Cryopreservated cells were thawed and grown for 72 h in DMEM medium with 10% FCS, 2 mM glutamine, 100 U/ml penicillin and 100 μg/ml streptomycin before use.
Cells were detached with cell dissociation solution (Sigma) and suspended in growth medium, centrifuged and resuspended in buffer A (150 mM NaCl, 25 mM HEPES, 2 mM EDTA, pH 7.4). Cells were incubated for 30 min at 37° C. in a 5% CO2. Subsequently, cells were washed with pre-warmed buffer B (150 mM NaCl, 25 mM HEPES pH 7.4) and resuspended in buffer B. 96-well Maxisorp-plate were coated with 0.01% poly-L-lysine, 10 μg/ml fibronectin (Chemicon; #F1904) in carbonate buffer or carbonate buffer alone (15 mM Na2CO3, 35 mM NaHCO3, pH 9.6) for 1 h at RT. Plates were washed and blocked with 1% BSA for 30 min at RT. Cells were preincubated with test compound and adjusted DMSO concentrations for 10 min at RT. 7×10^4 cells per well were plated in triplicate and allowed to attach for 1 h at 37° C. in the presence of 2 mM MgCl2. Cells were washed with PBS and adherent cells were fixed with 5% glutaraldehyde for 30 min.
Cells were subsequently washed and stained with 0.1% Crystal Violet for 1 hr at 37° C. Plates were washed and incorporated dye was solubilized with 10% acetic acid. Absorbance was measured at 570 nm using a Spectramax Plus 384 microtiter plate reader and analyzed with SoftMaxPro (Molecular Devices). Minimal binding on BSA was subtracted. IC50 values were determined using XL-FIT.

[1] = biological target: integrin alpha5beta1 extracellular domain Fc-fusion (Homo sapiens (Human), UniProt P05556+P08648); test: alpha5beta1-Fibronectin binding assay (competitive ELISA); conditions: inhibition of integrin binding to coated fibronectin
Description: as §1, §2
Fibronectin was diluted with coating buffer (15 mM Na2CO3, 35 mM NaHCO3, pH 9.6) and coated with 100 μL/well to Nunc-Immuno maxisorp plates (Nalge Nunc Europe Ltd) over night at 4° C. After discarding the coating solution plates were washed 3 times with buffer 1 (25 mM Tris, pH 7.6, 150 mM NaCl, 1 mM MnCl2, 1 mg/ml BSA) and blocked with 100 μL blocking buffer (3% BSA in PBS 0.1% Tween20) for 1 hour at room temperature. After washing the blocked plates (3 times) with buffer 1, integrin (50 μL) and either inhibitor (serial dilution in buffer 1) or buffer 1 (50 μL) were added to the wells and incubated for one hour at RT. Plates were then washed (3 times) with buffer 1 and incubated with 100 μL of anti-human-Fc-HRP antibody conjugate (Sigma-Aldrich, Taufkirchen, Germany) in buffer 1 for 1 hour at RT. After additional washing steps (3 times) with buffer 150 μL of HRP substrate solution TMB (Seramun, Germany) were added to the wells. Color development was stopped after 3-5 minutes with 50 μL 1 M H2SO4. The developed color was measured at 450 nm and analyzed as described above.

Cc1ccnc(NCC2CCN(c3ccc(CC(NC(=O)c4c(C)cc(C)cc4C)C(=O)O)cc3)CC2)c1 (centres unmarked) [Compound 8, 3-(4-(4-((4-methylpyridin-2-ylamino)methyl)piperidin-1-yl)phenyl)-2-(2,4,6-trimethylbenzamido)propanoic acid]
IC50 (HUVEC): < 10 µM | IC50 (Integrin alphaIIbbeta3): > 1 µM | IC50 (alpha5beta1): < 2 µM | IC50 [1]: < 0.1 µM

Cc1cc(C)c(C(=O)NC(Cc2ccc(N3CC(CNc4ccccn4)C3)cc2)C(=O)O)c(C)c1 (centres unmarked) [Compound 11, 3-(4-(3-((pyridin-2-ylamino)methyl)azetidin-1-yl)phenyl)-2-(2,4,6-trimethylbenzamido)propanoic acid]
IC50 (Integrin alphaIIbbeta3): > 1 µM | IC50 (alpha5beta1): > 20 µM | IC50 [1]: > 0.1 µM

Cc1cc(C)c(C(=O)NC(Cc2ccc(N3CCC(CNc4nc5ccccc5[nH]4)CC3)cc2)C(=O)O)c(C)c1 (centres unmarked) [Compound 20, 3-(4-(4-((1H-benzo[d]imidazol-2-ylamino)methyl)piperidin-1-yl)phenyl)-2-(2,4,6-trimethylbenzamido)propanoic acid]
IC50 (Integrin alphaIIbbeta3): > 1 µM | IC50 (alpha5beta1): 2 to 20 µM | IC50 [1]: > 0.1 µM

Cc1cc(C)c(C(=O)NC(Cc2ccc(N3CCC(c4ccc5c(n4)NCCC5)CC3)cc2)C(=O)O)c(C)c1 (centres unmarked) [Compound 23, 3-(4-(4-(5,6,7,8-tetrahydro-1,8-naphthyridin-2-yl)piperidin-1-yl)phenyl)-2-(2,4,6-trimethylbenzamido)propanoic acid]
IC50 (HUVEC): < 10 µM | IC50 (Integrin alphaIIbbeta3): > 1 µM | IC50 (alpha5beta1): < 2 µM | IC50 [1]: < 0.1 µM

CC1(C(=O)NC(CC2CCN(C(=O)CCc3ccc4c(n3)NCCC4)CC2)C(=O)O)CCCCC1 (centres unmarked) [Compound 29, 2-(1-methylcyclohexanecarboxamido)-3-(1-(3-(5,6,7,8-tetrahydro-1,8-naphthyridin-2-yl)propanoyl)piperidin-4-yl)propanoic acid]
IC50 (HUVEC): > 20 µM | IC50 (Integrin alphaIIbbeta3): > 1 µM | IC50 (alpha5beta1): 2 to 20 µM | IC50 [1]: < 0.1 µM

Cc1ccnc(NCC2CCN(c3ccc(CC(NC(=O)C4(C)CCCCC4)C(=O)O)cc3)CC2)c1 (centres unmarked) [Compound 75, 2-(1-methylcyclohexanecarboxamido)-3-(4-(4-((4-methylpyridin-2-ylamino)methyl)piperidin-1-yl)phenyl)propanoic acid]
IC50 (Integrin alphaIIbbeta3): > 1 µM | IC50 (alpha5beta1): < 2 µM | IC50 [1]: < 0.1 µM

Cc1ccnc(NCC2CC(=O)N(c3ccc(CC(NC(=O)c4c(C)cc(C)cc4C)C(=O)O)cc3)C2)c1 (centres unmarked) [Compound 114, 3-(4-(4-((4-methylpyridin-2-ylamino)methyl)-2-oxopyrrolidin-1-yl)phenyl)-2-(2,4,6-trimethylbenzamido)propanoic acid]
IC50 (HUVEC): < 10 µM | IC50 (alpha5beta1): < 2 µM | IC50 [1]: < 0.1 µM

CCc1cc(F)cc(C)c1C(=O)NC(Cc1ccc(N2CCC(CNc3ccccn3)CC2)cc1)C(=O)O (centres unmarked) [Compound 120, 2-(2-ethyl-4-fluoro-6-methylbenzamido)-3-(4-(4-((pyridin-2-ylamino)methyl)piperidin-1-yl)phenyl)propanoic acid]
IC50 (HUVEC): < 10 µM | IC50 (Integrin alphaIIbbeta3): > 1 µM | IC50 (alpha5beta1): < 2 µM | IC50 [1]: < 0.1 µM

COc1ccnc(NCC2CCN(c3ccc(CC(NC(=O)c4c(C)cc(C)cc4C)C(=O)O)cc3)CC2)c1 (centres unmarked) [Compound 147, 3-(4-(4-((4-methoxypyridin-2-ylamino)methyl)piperidin-1-yl)phenyl)-2-(2,4,6-trimethylbenzamido)propanoic acid]
IC50 (alpha5beta1): < 2 µM | IC50 [1]: < 0.1 µM

Cc1ccnc(NCC2CCN(c3ccc(CC(NC(=O)c4ccccc4)C(=O)O)cc3)CC2)c1 (centres unmarked) [Compound 262, 2-benzoylamino-3-(4-{4-[(4-methyl-pyridin-2-ylamino)methyl]piperidin-1-yl}phenyl)propionic acid]
IC50 (alpha5beta1): 2 to 20 µM | IC50 [1]: < 0.1 µM

Cc1ccnc(NCC2CCN(c3ccc(CC(NC(=O)C(c4ccccc4)C(C)C)C(=O)O)cc3)CC2)c1 (centres unmarked) [Compound 266, 2-(3-methyl-2-phenyl-butyrylamino)-3-(4-{4-[(4-methyl-pyridin-2-ylamino)methyl]piperidin-1-yl}phenyl)propionic acid]
IC50 (Integrin alphaIIbbeta3): > 1 µM | IC50 (alpha5beta1): < 2 µM | IC50 [1]: < 0.1 µM

CCCNC(=O)NCC1CCN(c2ccc(CC(NC(=O)c3c(C)cc(C)cc3C)C(=O)O)cc2)CC1 (centres unmarked) [Compound 269, 3-(4-{4-[(3-propyl-ureido)methyl]piperidin-1-yl}phenyl)-2-(2,4,6-trimethyl-benzoylamino)propionic acid]
IC50 (Integrin alphaIIbbeta3): > 1 µM | IC50 (alpha5beta1): > 20 µM | IC50 [1]: < 0.1 µM
